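A five-concentration, 48-hour dose response in 96-well plates underlies each endpoint, interpolated linearly between surrounding concentrations. GI50 marks 50% less growth.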 Active and inactive are the calls of the source. No stated cut-off is given here; in the data, active = GI50 up to about 1.1 µM and inactive = higher.
Legend:
Assay in all cases: inhibition of tumour cell growth, NCI panel, 48 h
NCI-H226 = system: NCI-H226
SW-620 = system: SW-620
CCRF-CEM = system: CCRF-CEM
DU-145 = system: DU-145
NCI-H522 = system: NCI-H522
SF-295 = system: SF-295
786-0 = system: 786-0
A498 = system: A498
SNB-75 = system: SNB-75
HOP-92 = system: HOP-92
MDA-MB-435 = system: MDA-MB-435
A549 = system: A549
OVCAR-4 = system: OVCAR-4
OVCAR-8 = system: OVCAR-8
MOLT-4 = system: MOLT-4
M14 = system: M14
SF-539 = system: SF-539
TK-10 = system: TK-10
OVCAR-5 = system: OVCAR-5
HL-60 = system: HL-60

Structure (SMILES): Cc1c(Cl)nc(Cl)nc1Cl
- GI50 (NCI-H226): 3210 nM (inactive)
- GI50 (SW-620): 1270 nM (inactive)
- GI50 (CCRF-CEM): 238 nM (active)
- GI50 (DU-145): 3630 nM (inactive)
- GI50 (NCI-H522): 44 nM (active)
- GI50 (SF-295): 5700 nM (inactive)
- GI50 (786-0): 1480 nM (inactive)
- GI50 (A498): 3800 nM (inactive)
- GI50 (SNB-75): 5680 nM (inactive)
- GI50 (HOP-92): 2120 nM (inactive)
- GI50 (MDA-MB-435): 2190 nM (inactive)
- GI50 (A549): 2690 nM (inactive)
- GI50 (OVCAR-4): 1460 nM (inactive)
- GI50 (OVCAR-8): 2480 nM (inactive)
- GI50 (MOLT-4): 321 nM (active)
- GI50 (M14): 857 nM (active)
- GI50 (SF-539): 2430 nM (inactive)
- GI50 (TK-10): 3510 nM (inactive)
- GI50 (OVCAR-5): 1880 nM (inactive)
- GI50 (HL-60): 1940 nM (inactive)
